Test results: US4517007A, “Phosphoroamide urease inhibitors and urease inhibited urea based fertilizer compositions” (Allied Corporation, priority 1983, dated 1985)

test system: urease; test: Urease Inhibition Efficacy Test in soil (urea remaining after incubation); format: biochemical; conditions: 800 micrograms test compound and 42.8 mg urea on 20 g air-dry Cazenovia silt loam, pH 7.0; incubated at 25° C. for three days; run in triplicate
Description: Efficacy tests were conducted to evaluate the efficacy of representative compounds as urease inhibitors. The inhibition tests were run in a New York soil (Cazenovia silt loam, pH 7.0). Evaluations (run in triplicate) consisted of applying 800 micrograms of the test compound in 5 mL of water and 42.8 mg of urea in 1 mL of water to 20 g of air-dry soil in a glass bottle. The bottle was capped with perforated aluminum foil and incubated at 25° C. for three days prior to extraction with 100 mL of a 2M KCl solution containing 0.5 mg of phenylmercuric acetate. The extracts were then analyzed for remaining urea using an autoanalyzer. Percent inhibition was calculated as [formula] where A is urea recovered from an unincubated sample (urea added to soil and immediately extracted); B is urea recovered from an inhibited sample; and C is urea recovered from the control (uninhibited sample).

Row | SMILES | % Inhibition 40 micrograms per gram Cazenovia soil [%]
1 | NP1(=O)Oc2ccccc2O1 [Experiment 1] | 54
2 | NP(N)(=O)Oc1ccc2c(c1)OP(N)(=O)O2 (stereo not drawn) [Experiment 3] | 21
3 | NP(N)(=O)Oc1cccc2c1OP(N)(=O)O2 (stereo not drawn) [Experiment 2] | 5
